The source of these data is publication PMC6930522, “Structure-Based Pharmacophore Modeling, Virtual Screening, Molecular Docking and Biological Evaluation for Identification of Potential Poly (ADP-Ribose) Polymerase-1 (PARP-1) Inhibitors” (Molecules, 2019).

Like-named read-outs stand apart in the source and are kept apart here. Some results are limits rather than exact numbers.

Assay [1] concerns the target T1, PARP-3 (Homo sapiens, UniProt Q9Y6F1).
T1 construct: purchased Trevigan (Gaithersburg, MD, USA)
T1 sequence (Q9Y6F1 1-533): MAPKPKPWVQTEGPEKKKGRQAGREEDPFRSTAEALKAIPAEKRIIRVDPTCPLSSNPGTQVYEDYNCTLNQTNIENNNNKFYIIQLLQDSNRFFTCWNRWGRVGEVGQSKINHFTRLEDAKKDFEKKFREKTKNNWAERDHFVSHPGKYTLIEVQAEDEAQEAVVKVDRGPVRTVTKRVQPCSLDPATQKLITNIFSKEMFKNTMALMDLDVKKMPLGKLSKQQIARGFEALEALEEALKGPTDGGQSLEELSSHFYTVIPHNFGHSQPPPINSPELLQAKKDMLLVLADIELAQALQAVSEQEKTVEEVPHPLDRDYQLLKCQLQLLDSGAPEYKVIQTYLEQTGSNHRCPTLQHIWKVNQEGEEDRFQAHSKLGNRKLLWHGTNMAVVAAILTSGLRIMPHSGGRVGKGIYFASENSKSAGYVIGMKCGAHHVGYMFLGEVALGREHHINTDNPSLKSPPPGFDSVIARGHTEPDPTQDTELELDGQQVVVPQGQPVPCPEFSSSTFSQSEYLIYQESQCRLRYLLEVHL
Nature of the assay: In vitro PARP inhibition assay (PARP-3). Format: biochemical. Conditions: Table 4. The method, then:
(§1) Purified recombinant human PARPs from Trevigan (Gaithersburg, MD, USA) was used to determine the IC50 values of a PARP inhibitor. The PARP enzyme assay was set up on ice in a volume of 100 μL consisting of 50 mM Tris–HCl (pH 8.0), 2 mM MgCl2, 30 μg/mL of DNase activated herring sperm DNA (Sigma, MO, USA), 30 μM [^3H]nicotinamide adenine dinucleotide (67 mCi/mmol), 75 μg/mL PARP enzyme and various concentrations of the compounds to be tested. The reaction was initiated by incubating the mixture at 25 °C. After 15 min of incubation, the reaction was terminated by adding 500 μL of ice cold 20% (w/v) trichloroacetic acid. The formed precipitate was transferred onto a glass fiber filter (Packard Unifilter–GF/B) and washed three times with ethanol. After the filter is dried, the radioactivity is determined by scintillation counting.

In assay [2] the target is T2, PARP-2 (Homo sapiens, UniProt Q9UGN5).
T2 construct: purchased Trevigan (Gaithersburg, MD, USA)
T2 sequence (Q9UGN5 whole entry): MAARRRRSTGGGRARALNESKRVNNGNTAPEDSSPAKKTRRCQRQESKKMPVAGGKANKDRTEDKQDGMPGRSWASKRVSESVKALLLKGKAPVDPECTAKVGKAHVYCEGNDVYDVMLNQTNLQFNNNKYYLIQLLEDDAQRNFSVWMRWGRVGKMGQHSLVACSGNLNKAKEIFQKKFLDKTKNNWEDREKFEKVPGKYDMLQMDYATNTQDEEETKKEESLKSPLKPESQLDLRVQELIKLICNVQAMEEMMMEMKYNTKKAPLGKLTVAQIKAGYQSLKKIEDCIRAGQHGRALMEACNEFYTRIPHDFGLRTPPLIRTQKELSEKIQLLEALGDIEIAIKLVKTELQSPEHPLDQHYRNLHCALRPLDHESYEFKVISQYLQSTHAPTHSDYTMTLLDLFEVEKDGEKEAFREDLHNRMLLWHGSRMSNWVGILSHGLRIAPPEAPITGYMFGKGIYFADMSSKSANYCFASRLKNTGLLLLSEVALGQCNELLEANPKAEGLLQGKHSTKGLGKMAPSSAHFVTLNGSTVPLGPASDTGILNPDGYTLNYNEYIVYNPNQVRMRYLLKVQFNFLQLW
Nature of the assay: In vitro PARP inhibition assay (PARP-2). Format: biochemical. On the procedure: as §1

For assay [3], the system named is human lung cancer A549 cells. Nature of the assay: MTT assay, proliferation of A549 cells. In kind it is cell-based. The conditions noted are these: 48 h, different concentrations, Figure 5. The method, then:
A549 cells were seeded in a 96-well culture plate and allowed to grow overnight. Then, cells were exposed to different concentrations of compounds 1–4 and incubated at 37 °C for 48 h. After that, an MTT stock solution (0.5 mg/mL) was added into each well and the plate was incubated for 4 h. The 150 µL of DMSO was used for fixing the MTT-treated cells and the absorbance of each sample was recorded at 490 nm with a Microplate Spectrophotometer.

Assay [4] addresses T3, PARP-1 (Homo sapiens, UniProt P09874).
T3 construct: purchased Trevigan (Gaithersburg, MD, USA)
Nature of the assay: In vitro PARP inhibition assay (PARP-1). Format: biochemical. The conditions noted are these: Table 3; PARP-1 enzyme assay, mean ± SD, three independent experiments. On the procedure: as §1

T3 sequence (P09874 whole entry): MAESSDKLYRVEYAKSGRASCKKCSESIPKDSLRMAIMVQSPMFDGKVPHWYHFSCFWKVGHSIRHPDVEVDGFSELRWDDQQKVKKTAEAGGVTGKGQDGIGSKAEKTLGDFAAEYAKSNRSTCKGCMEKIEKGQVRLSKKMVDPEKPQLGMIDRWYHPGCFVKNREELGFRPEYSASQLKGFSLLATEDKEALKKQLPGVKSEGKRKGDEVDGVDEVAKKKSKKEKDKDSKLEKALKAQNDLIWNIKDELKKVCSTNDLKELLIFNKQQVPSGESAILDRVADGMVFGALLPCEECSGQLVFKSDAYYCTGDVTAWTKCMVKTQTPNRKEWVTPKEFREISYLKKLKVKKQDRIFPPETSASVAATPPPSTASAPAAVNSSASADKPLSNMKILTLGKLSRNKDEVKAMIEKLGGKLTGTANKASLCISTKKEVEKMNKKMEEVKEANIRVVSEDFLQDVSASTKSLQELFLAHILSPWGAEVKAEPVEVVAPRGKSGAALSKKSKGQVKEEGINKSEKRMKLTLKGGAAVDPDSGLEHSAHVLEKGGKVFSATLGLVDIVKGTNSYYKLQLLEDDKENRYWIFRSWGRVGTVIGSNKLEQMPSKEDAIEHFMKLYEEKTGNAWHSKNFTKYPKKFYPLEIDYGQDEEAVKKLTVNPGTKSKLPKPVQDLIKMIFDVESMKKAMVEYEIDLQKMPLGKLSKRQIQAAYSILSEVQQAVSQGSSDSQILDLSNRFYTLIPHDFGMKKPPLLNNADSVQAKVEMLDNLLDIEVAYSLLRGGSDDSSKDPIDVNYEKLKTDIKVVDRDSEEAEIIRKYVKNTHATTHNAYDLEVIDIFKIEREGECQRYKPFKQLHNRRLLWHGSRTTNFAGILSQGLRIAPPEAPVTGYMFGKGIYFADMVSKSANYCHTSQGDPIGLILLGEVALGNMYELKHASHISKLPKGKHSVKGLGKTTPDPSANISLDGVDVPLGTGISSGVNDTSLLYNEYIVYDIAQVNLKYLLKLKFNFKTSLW

For `NC(=O)c1cccc2c1C(=O)N(C1CCN(Cc3ccc(F)cc3)CC1)C2` [Compound 1], the IC50 in assay [1] is > 100000 nM; in assay [2], > 35000 nM. The “Inhibition of growth/proliferation of A549 cells” value in assay [3] is “stronger anti-proliferation effects than compounds 2 and 3”.

In turn, `Cc1nc2c(O)cccc2c(=O)[nH]1` [NU1025, reference compound] displayed an IC50 in assay [4] of 400 ± 35 nM.

Compound `CN(C)CCNc1ccc2[nH]c(=O)c3ccccc3c2n1` [Compound 2] displayed an IC50 in assay [4] of 190 ± 26 nM.

In turn, `CC(=O)Nc1cccc(Cn2c(=O)[nH]c(=O)c3ccccc32)c1` [Compound 3] came in with an IC50 in assay [4] of 160 ± 13 nM.

With `CCc1ccc(-c2nc3cccc4c3n2CCNC4=O)cc1` [Compound 4], the IC50 was > 100000 nM in assay [1]; > 35000 nM in assay [2] (Table 4, read-out: PARP-2); 65 ± 8 nM in assay [4]. In addition, the PARP-2/PARP-1 in assay [2] (selectivity ratio of IC50 values) is listed as >1000. In assay [3], the “Inhibition of growth/proliferation of A549 cells” value was “stronger anti-proliferation effects than compounds 2 and 3”.
